# Reference: a melting point compilation (Tetko et al.; mined from patent text by program, amines drawn as free bases though some values may be those of a salt)
row,Structure (SMILES),melting point
1,CC(C)CCCC(C)C1CCC2C3CC=C4CC(OCCCCCCSC5OCC(O)C(O)C5O)CCC4(C)C3CCC12C (centres undefined),115 °C
2,O=C(O)c1ccc(OC(F)F)c2oc3ccc(C(F)(F)F)cc3c12,280 °C
3,CCOC(=O)C(Cc1ccc(OCc2ccccc2)cc1)Oc1ccc(OC(F)(F)F)cc1 (centres undefined),34 to 36 °C
4,CC1(C)CC(c2cccc(C(F)(F)F)c2)c2ccc(O)cc2O1 (centres undefined),63 to 68 °C
5,Cc1oc(-c2ccccc2)nc1COc1ccc(COc2cccc(CC(=O)O)c2)cc1,159 to 160 °C
6,COc1ccc(CCCCNC(=O)CCl)cc1,99 to 100 °C
7,OCc1cn(-c2ccccc2)nc1-c1ccc(Cl)cc1,141 to 142 °C
8,CC(CNC(=O)Nc1ccc([N+](=O)[O-])cc1O)OCc1ccccc1 (centres undefined),64.6 to 65.2 °C
9,COc1ccc(-c2nc(SCCOCCn3ccnc3C)[nH]c2-c2ccc(OC)cc2)cc1,77 to 79 °C
10,O=C(O)C1CCN2c3ccc(Cl)cc3Oc3ccccc3C2C1 (centres undefined),209 to 211 °C
11,Cc1nc2c(OCc3ccccc3)cc(CO)cn2c1C,213 to 215 °C
12,Cc1[nH]c(=O)c2c(ccc3nc(Nc4c(Cl)cccc4Cl)n(C)c32)c1CC(=O)N1CCOCC1,> 300 °C
13,O=C(Nc1ccccc1C(=O)O)OCc1ccccn1,172 to 175 °C
14,CCNC(=O)Nc1nc2cc(-c3cccnc3)cc(-c3nc(C)no3)n2n1,298 to 301 °C
15,COC(=O)c1c(C)c(O)cc(OC)c1Br,105 to 110 °C
16,CCOC(=O)c1cn(N(C)C=O)c2c(F)c(N3CCN(C)CC3)c(F)cc2c1=O,180 °C
17,CC(C)CCS(=O)(=O)NC(=O)/C=C/c1cc(OCC2CC2)nn1Cc1ccc(C(F)(F)F)cc1Cl,156 to 158 °C
18,CCOCc1nc2c(N)nc3ccc(OCc4ccccc4)cc3c2n1CC(C)(C)NS(C)(=O)=O,90 °C
19,CCOC(=O)C(=NO)c1cnsn1,60 to 66 °C
20,CCN(C)C(=O)c1cc(C)c(C(c2cc(F)ccc2F)S(=O)(=O)c2ccc(F)cc2)cn1 (centres undefined),165 to 167 °C
21,CC(C)(C)OC(=O)Nc1ncc(C=O)s1,173 to 175 °C
22,CSCCn1nc(-c2cc(C(C)(C)C)c(O)c(C(C)(C)C)c2)c2cccnc21,104 to 106 °C
23,COc1ccc(F)cc1C(C)(C)CC(O)(Cn1ccc(=O)c2ccccc21)C(F)(F)F (centres undefined),170 to 172 °C

row,Structure (SMILES),melting point
1,CC(C)OC(=O)C(C(=O)OC(C)C)=C1SC2C(S1)N(C(C)C)CCN2C(C)C (centres undefined),82 to 84 °C
2,COc1ccc(C2(C)C(=O)Nc3cc(Cl)cc(Cl)c3C2=O)cc1 (centres undefined),210 to 212 °C
3,O=C(Oc1ccc([N+](=O)[O-])cc1)OC1CCN(C(=O)Oc2ccc(Oc3ccccc3)cc2)CC1,108 to 109 °C
4,CSc1c(Cl)ccc(C(=O)O)c1F,183 to 185 °C
5,CCOC(=O)CNC(=O)CCCCCNC(=O)c1ccc(OC)cc1,106 to 107 °C
6,Cc1sc(C#N)c2c1C(=O)CC(C)(C)C2,73 to 75 °C
7,Cn1cc2c(O)cc(-c3ccccc3)nc2n1,241 to 243 °C
8,CC1(C)CC(=O)c2cc(C#N)c(N3CCCCC3)nc2C1,99 to 100 °C
9,O=C(O)c1ccc2cc(-c3ccc(CC(O)CO)c(C45CC6CC(CC(C6)C4)C5)c3)ccc2c1 (centres undefined),258 °C
10,COc1cccc(-c2ccccc2CNC(=O)C(C)C)c1,103 to 105 °C
11,COc1ccc(C(=O)Nc2ccc(-c3ccc(C)cc3Cl)cc2)cc1CCCN(C)C,63 to 66 °C
12,O=C1N[C@H](Cc2cccc(OC(F)(F)C(F)F)c2)[C@H](c2ccnc(F)c2)O1 (racemic),118 to 119 °C
13,CC1(C)CC(=O)C2=C(C1)NC1=C(C(=O)CC(C)(C)C1)C2c1ccc(Cl)c(Oc2ccccc2)c1,246 to 248 °C
14,O=C1N(CC2CCN(c3ccccn3)CC2)c2ccccc2C12COc1cc3c(cc12)OCO3 (centres undefined),95 to 97 °C
15,CC(C)(C)NC(CO)c1cc(Cl)c(N)c(C(F)(F)F)c1 (centres undefined),85 to 90 °C
16,CCn1c(=O)c2ccccc2n2cnc(-c3nc(COC)no3)c12,176 °C
17,Cn1c(COc2ccc(CC3SC(=O)NC3=O)cc2)nc2ccc(Oc3cccc(NC(=O)NC45CC6CC(CC(C6)C4)C5)c3)cc21 (centres undefined),227 to 231 °C
18,O=c1ccc2cccc(Oc3cc(-c4ccc(C(F)(F)F)cc4)ncn3)c2[nH]1,312 °C
19,Nc1c(NCCCOc2cccc(CO)c2)c(=O)c1=O,207 to 212 °C
20,OC1(c2cn(-c3ccc(Br)cc3)nn2)CN2CCC1CC2 (centres undefined),214 °C
21,C=Cn1cc(C(=O)O)c(=O)c2ccc(Cl)cc21,269 °C
22,CC(C)(C)NCCCS(=O)(=O)O,> 280 °C
23,COC1CN(CC2CCCO2)CCC1NC(=O)c1cc(Cl)c(N)c2c1OCCC2 (centres undefined),158 °C

row,Structure (SMILES),melting point
1,CCN1C(=O)C(C)(C)CCc2c1ccc(Nc1ncc(Cl)c(Nc3ccc(N4CCOCC4)cc3OC)n1)c2OC,181 to 183 °C
2,COc1nc2cc(Cl)cc(C)c2nc1OC,94 to 96 °C
3,CN(C)C=C1CCc2ccn(Cc3ccccc3)c2C1=O,116 to 118 °C
4,CC(=O)C1(O)CCC2C3C=C(C)C4=CC(=O)CCC4(CO)C3CCC21C (centres undefined),184 to 186 °C
5,COc1cc(OC)cc(-c2nc[nH]c2-c2ccc(OC)c(O)c2F)c1,126 to 128 °C
6,CCCCc1nc(CCCC)n(Cc2ccc(-c3ccccc3-c3nnn[nH]3)cn2)n1,136 to 138 °C
7,O=C(O)c1cc(-n2c(-c3ccc(Br)cc3)cc3c2CCC3)ccc1O,215 to 216 °C
8,COc1cc(C=CC(=O)OCCCCBr)ccc1O,86 to 89 °C
9,CCCCCCc1ccc(-c2ccc(-c3ccc(-c4ccc(-c5ccc(-c6ccc(CCCCCC)o6)o5)o4)o3)o2)o1,261 °C
10,COC(=O)C1=C(C)NC(CO)=C(C(=O)OC)C1c1cccc2c(=O)c(C)c(-c3ccccc3)oc12 (centres undefined),231 to 233 °C
11,O=C(O)CC1CCCc2c(n(Cc3ccc(-n4ccnc4)cc3)c3ccc(F)cc23)C1 (centres undefined),237 °C
12,COc1ccc(-c2ocnc2-c2cc(OC)c([N+](=O)[O-])c(OC)c2)cc1O,186 to 188 °C
13,Fc1ccccc1/C=C/c1ccc(N(c2ccccc2)c2ccccc2)cc1,114 to 115 °C
14,CC(O)=C(C(=O)OC(c1ccccc1)c1ccccc1)N1C(=O)C(NC(=O)C(NC(=O)OC(C)(C)C)c2ccccc2)C1SS(=O)(=O)c1ccc(C)cc1 (centres undefined),182 to 184 °C
15,CN(Cc1cccc(-c2ccc(CC3SC(=O)NC3=O)cc2)c1)C(=O)c1cccs1 (centres undefined),160 °C
16,COc1ccc(C2(CCCCl)S(=O)CCCS2=O)cc1OC (centres undefined),163 to 164 °C
17,COC(=O)C[C@@H]1C[C@@H](COc2ccc(-c3ccc(C(=N)NC(=O)OCc4ccccc4)cc3)cc2)NC1=O,160 to 164 °C
18,O=C(O)COc1ccc(SCc2ccc(-c3ccc(C(F)(F)F)cc3)cc2)c2c1CCCO2,122 to 124 °C
19,C=CC(=O)Nc1ccc2c(c1)nnn2C(C)=O,167 to 170 °C
20,CON=C(C1=NCCO1)c1ccccc1OCc1ccc(Cl)cc1,97 to 100 °C
21,Cc1c(-c2ccccc2)[nH]c(N2CCCC2=O)c1C#N,140 to 141 °C
22,Nc1nc(NC2CC2)c2sc(=O)n(C3OC(CO)C(O)C3O)c2n1 (centres undefined),> 100 °C
23,O=C(O)/C=C(\c1ccccc1)c1ccncc1,239 to 241 °C
